The record followed here is BindingDB's records for patent US20240067631 (Cytokinetics, 2024).

For the experiment, the target named is Nicotinamide phosphoribosyltransferase (Homo sapiens, UniProt P43490). Kind of experiment: NMN Fluorescence Biochemical Assay. On the procedure:
Human Recombinant Enzyme Assay: Compounds described herein were assayed for their ability to stimulate the synthesis of nicotinamide mononucleotide (NMN) by the enzyme NAMPT. The human recombinant enzyme assay measures the activation of the enzyme activity by compounds using recombinant enzyme and substrates in a buffered cell-free system. The assay conditions closely mimic cellular environments. Dose responses were measured using an assay to detect the formation of nicotinamide mono-nucleotide. All experiments were performed in the 384-well format. Generally, 0.5 μL of DMSO containing varying concentrations of the test compound was mixed with 10 μL of the enzyme reagent solution. Enzyme reactions were initiated with the addition of 10 μL of a solution containing the substrates. The final assay conditions were as follows: 6 nM human NAMPT, 2.5 mM ATP, […] in 50 mM HEPES, pH 7.2, 1 mM DTT, 1 mM CHAPS 50 mM NaCl, 100 mM MgCl2. Following an incubation of 60 min at ambient temperature, 10 μL of 20% acetophenone in DMSO was added, followed by 10 μL of 2 M KOH and 40 μL of formic acid. The plates were read for fluorescence (Excitation/Emission=355 nm/460 nm) using an EnVision plate reader after 40 mins of incubation at ambient temperature. […]

Nicotinamide phosphoribosyltransferase, sequence (P43490 whole entry): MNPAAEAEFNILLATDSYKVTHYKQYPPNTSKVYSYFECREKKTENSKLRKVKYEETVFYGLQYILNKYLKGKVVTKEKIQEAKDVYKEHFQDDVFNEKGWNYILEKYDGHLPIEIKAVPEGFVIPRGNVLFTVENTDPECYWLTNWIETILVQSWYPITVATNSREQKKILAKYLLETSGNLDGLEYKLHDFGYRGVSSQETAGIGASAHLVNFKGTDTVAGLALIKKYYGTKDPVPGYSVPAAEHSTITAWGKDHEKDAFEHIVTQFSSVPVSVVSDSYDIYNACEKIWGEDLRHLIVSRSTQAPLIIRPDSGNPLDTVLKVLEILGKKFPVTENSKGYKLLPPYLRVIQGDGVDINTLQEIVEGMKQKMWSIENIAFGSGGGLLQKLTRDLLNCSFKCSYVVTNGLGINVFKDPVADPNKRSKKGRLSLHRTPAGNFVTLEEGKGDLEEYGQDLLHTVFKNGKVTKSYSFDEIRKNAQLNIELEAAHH

A word on the EC50: it is the concentration giving half of the maximal effect. A high value points to weaker potency. Compound `Cc1nc(C(=O)N2CCN(Cc3ccccc3)C(=O)C2)nc(NCCc2cn[nH]c2)c1C` [US20240067631, Compound 45] gave an EC50 of 3.52 µM.

`Cc1ccc([C@@H](C)NC(=O)c2nc(C)c(C)c(NCCc3cn[nH]c3)n2)o1` [US20240067631, Compound 101] had a concentration giving a half-maximal response (EC50) of 4.09 µM.
